Patent publication US5126336A, “Antibiotic C-3 catechol-substituted cephalosporin compounds, compositions and method of use thereof” (Bristol-Myers Squibb Company, priority 1990, dated 1992)
≈ marks a conversion by molar mass, not a printed value.

Legend:
Type in all cases: cell-based
S. aureus 4-1015 (MRSA) = experiment: MIC, agar dilution; conditions: Staphylococcus aureus, Mueller-Hinton agar pH 7.2, 32° C., 18 hr, 10^6 cells/ml
Experimental: (§1) Minimum inhibitory concentrations (MICs) of the present series of cephalosporins were determined against 32 strains of test organisms by two-fold serial agar dilution method in Mueller-Hinton agar. Geometric means of MICs were calculated against six groups of the test organisms which are classified as follows and summarized in Table 1.
(§2) Medium; MuellerHinton agar (pH = 7.2)
(§3) Incubation temperature: 32° C., 18 hr
(§4) Inoculum size; 10^6 cells/ml

K. pneumoniae PCI 602 = experiment: MIC, agar dilution; conditions: Klebsiella pneumoniae, PCI602, Mueller-Hinton agar pH 7.2, 32° C., 18 hr, 10^6 cells/ml
Experimental: as §1, §2, §3, §4

S. epidermidis 11-1230 = experiment: MIC, agar dilution; conditions: Staphylococcus epidermidis, 111230, Mueller-Hinton agar pH 7.2, 32° C., 18 hr, 10^6 cells/ml
Experimental: as §1, §2, §3, §4

P. cepacia A21213 = experiment: MIC, agar dilution; conditions: Burkholderia cepacia, Mueller-Hinton agar pH 7.2, 32° C., 18 hr, 10^6 cells/ml
Experimental: as §1, §2, §3, §4

S. marcescens IPM-16 = experiment: MIC, agar dilution; conditions: Serratia marcescens, IPM16, Mueller-Hinton agar pH 7.2, 32° C., 18 hr, 10^6 cells/ml
Experimental: as §1, §2, §3, §4

S. aureus IPM-24 (MRSA) = experiment: MIC, agar dilution; conditions: Staphylococcus aureus, Mueller-Hinton agar pH 7.2, 32° C., 18 hr, 10^6 cells/ml
Experimental: as §1, §2, §3, §4

E. faecium A24817 = experiment: MIC, agar dilution; conditions: Enterococcus faecium, Mueller-Hinton agar pH 7.2, 32° C., 18 hr, 10^6 cells/ml
Experimental: as §1, §2, §3, §4

X. maltophilia GN 12873 = experiment: MIC, agar dilution; conditions: Stenotrophomonas maltophilia, GN12873, Mueller-Hinton agar pH 7.2, 32° C., 18 hr, 10^6 cells/ml
Experimental: as §1, §2, §3, §4

X. maltophilia No. 661 = experiment: MIC, agar dilution; conditions: Stenotrophomonas maltophilia, Mueller-Hinton agar pH 7.2, 32° C., 18 hr, 10^6 cells/ml
Experimental: as §1, §2, §3, §4

P. aeruginosa IPM-8 = experiment: MIC, agar dilution; conditions: Pseudomonas aeruginosa, IPM8, Mueller-Hinton agar pH 7.2, 32° C., 18 hr, 10^6 cells/ml
Experimental: as §1, §2, §3, §4

M. luteus 1001 = experiment: MIC, agar dilution; conditions: Micrococcus luteus, Mueller-Hinton agar pH 7.2, 32° C., 18 hr, 10^6 cells/ml
Experimental: as §1, §2, §3, §4

M. morgani 1510/9 = experiment: MIC, agar dilution; conditions: Mueller-Hinton agar pH 7.2, 32° C., 18 hr, 10^6 cells/ml
Experimental: as §1, §2, §3, §4

C. freundii GN 7391 = experiment: MIC, agar dilution; conditions: Citrobacter freundii, GN7391, Mueller-Hinton agar pH 7.2, 32° C., 18 hr, 10^6 cells/ml
Experimental: as §1, §2, §3, §4

E. coli 255 = experiment: MIC, agar dilution; conditions: Escherichia coli, Mueller-Hinton agar pH 7.2, 32° C., 18 hr, 10^6 cells/ml
Experimental: as §1, §2, §3, §4

E. cloacae IPM-12 = experiment: MIC, agar dilution; conditions: Enterobacter cloacae, IPM12, Mueller-Hinton agar pH 7.2, 32° C., 18 hr, 10^6 cells/ml
Experimental: as §1, §2, §3, §4

B. subtilis PCI 219 = experiment: MIC, agar dilution; conditions: Bacillus subtilis, PCI219, Mueller-Hinton agar pH 7.2, 32° C., 18 hr, 10^6 cells/ml
Experimental: as §1, §2, §3, §4

P. cepacia No. 651 = experiment: MIC, agar dilution; conditions: Burkholderia cepacia, Mueller-Hinton agar pH 7.2, 32° C., 18 hr, 10^6 cells/ml
Experimental: as §1, §2, §3, §4

P. aeruginosa IPM-9 = experiment: MIC, agar dilution; conditions: Pseudomonas aeruginosa, IPM9, Mueller-Hinton agar pH 7.2, 32° C., 18 hr, 10^6 cells/ml
Experimental: as §1, §2, §3, §4

P. mirabilis IFO-2849 = experiment: MIC, agar dilution; conditions: Proteus mirabilis, IFO2849, Mueller-Hinton agar pH 7.2, 32° C., 18 hr, 10^6 cells/ml
Experimental: as §1, §2, §3, §4

M. morgani 1510 = experiment: MIC, agar dilution; conditions: Mueller-Hinton agar pH 7.2, 32° C., 18 hr, 10^6 cells/ml
Experimental: as §1, §2, §3, §4

P. rettgeri IPM-14 = experiment: MIC, agar dilution; conditions: Providencia rettgeri, IPM14, Mueller-Hinton agar pH 7.2, 32° C., 18 hr, 10^6 cells/ml
Experimental: as §1, §2, §3, §4

S. marcescens IPM-15 = experiment: MIC, agar dilution; conditions: Serratia marcescens, IPM15, Mueller-Hinton agar pH 7.2, 32° C., 18 hr, 10^6 cells/ml
Experimental: as §1, §2, §3, §4

C. terrigena IFO 12685 = experiment: MIC, agar dilution; conditions: Mueller-Hinton agar pH 7.2, 32° C., 18 hr, 10^6 cells/ml
Experimental: as §1, §2, §3, §4

E. faecalis A9808 = experiment: MIC, agar dilution; conditions: Enterococcus faecalis, Mueller-Hinton agar pH 7.2, 32° C., 18 hr, 10^6 cells/ml
Experimental: as §1, §2, §3, §4

P. vulgaris IPM-13 = experiment: MIC, agar dilution; conditions: Proteus vulgaris, IPM13, Mueller-Hinton agar pH 7.2, 32° C., 18 hr, 10^6 cells/ml
Experimental: as §1, §2, §3, §4

P. aeruginosa KKA 19 = experiment: MIC, agar dilution; conditions: Pseudomonas aeruginosa, KKA19, Mueller-Hinton agar pH 7.2, 32° C., 18 hr, 10^6 cells/ml
Experimental: as §1, §2, §3, §4

S. aureus 209P = experiment: MIC, agar dilution; conditions: Staphylococcus aureus; S. aureus 209P; Mueller-Hinton agar pH 7.2; 32° C., 18 hr; 10^6 cells/ml; read-out: MIC
Experimental: as §1, §2, §3, §4

P. aeruginosa A20599 = experiment: MIC, agar dilution; conditions: Pseudomonas aeruginosa, Mueller-Hinton agar pH 7.2, 32° C., 18 hr, 10^6 cells/ml
Experimental: as §1, §2, §3, §4

P. aeruginosa A9843A = experiment: MIC, agar dilution; conditions: Pseudomonas aeruginosa, A9843A, 18 h, pH 7.2
Experimental: as §1
(§5) In vivo antibacterial activity was determined against three bacterial infections (S. aureus Smith, E. coli Juhl and P. aeruginosa A9843A) by intramuscular administration to mice just after the bacterial challenge. PD50 values are summarized in Table 3 in comparsion with the MIC values against the corresponding organisms.
as §2, §3, §4

E. coli Juhl A15119 = experiment: MIC, agar dilution; conditions: Escherichia coli, JUHLA15119; E. coli Juhl A15119; Mueller-Hinton agar pH 7.2; 32° C., 18 hr; 10^6 cells/ml; read-out: MIC
Experimental: as §1, §5, §2, §3, §4

S. aureus Smith = experiment: MIC, agar dilution; conditions: Staphylococcus aureus; S. aureus Smith; Mueller-Hinton agar pH 7.2; 32° C., 18 hr; 10^6 cells/ml; read-out: MIC
Experimental: as §1, §5, §2, §3, §4

[1] = system: Gp-Ib: Penicillin(PC)-resistant S. aureus (5); experiment: MIC, two-fold serial agar dilution, Gp-Ib; conditions: Staphylococcus aureus, 5 strains, Mueller-Hinton agar, read-out: Geometric mean of MIC
Experimental: as §1
Gp-Ib Penicillin(PC)-resistant S. aureus (5).

[2] = system: Gn-Ia: Cephalothin(CET)-sensitive E. coli (2), Kl. pneumoniae (1) and Pr. mirabilis (2); experiment: MIC, two-fold serial agar dilution, Gn-Ia; conditions: 5 strains, Mueller-Hinton agar, read-out: Geometric mean of MIC
Experimental: as §1
Gn-Ia Cephalothin(CET)-sensitive E. coli (2), Kl.
pneumoniae (1) and Pr. mirabilis (2).

[3] = system: Gn-Ib: Cephalothin(CET)-resistant E. coli (3) and Kl. pneumoniae (2); experiment: MIC, two-fold serial agar dilution, Gn-Ib; conditions: Escherichia coli, read-out: Geometric mean of MIC, Gn-Ib, 5 strains; Mueller-Hinton agar
Experimental: as §1
Gn-Ib Cephalothin(CET)-resistant E. coli (3) and Kl.

[4] = system: Gn-II: M.morganii (1), Ent. cloacae (2) and Ser. marcescens (2); experiment: MIC, two-fold serial agar dilution, Gn-II; conditions: Gn-II, 5 strains; Mueller-Hinton agar; read-out: Geometric mean of MIC
Experimental: as §1
Gn-II M.morganii (1), Ent. cloacae (2) and Ser.

[5] = system: Gn-III: Ps. aeruginosa (7); experiment: MIC, two-fold serial agar dilution, Gn-III; conditions: Pseudomonas aeruginosa, Gn-III, 7 strains; Mueller-Hinton agar; read-out: Geometric mean of MIC
Experimental: as §1
Gn-III Ps. aeruginosa (7).

[6] = system: Gp-Ia: Penicillin(PC)-sensitive S. aureus (5 strains); experiment: MIC, two-fold serial agar dilution, Gp-Ia; conditions: Staphylococcus aureus, Mueller-Hinton agar, read-out: Geometric mean of MIC
Experimental: as §1
Gp-Ia Penicillin(PC)-sensitive S. aureus (5 strains).

CC(C)(O/N=C(\C(=O)NC1C(=O)N2C(C(=O)O)=C(/C=C/Cn3cnc4cc(O)c(O)cc43)CS[C@H]12)c1csc(N)n1)C(=O)O (stereo partly shown) [Io, 7-[(Z)-2-(2-Aminothiazol-4-yl)-2-(1-methyl-1-carboxyethoxy-imino)acetamido]-3-[(E)-3-(5,6-dihydroxybenzimidazol-1-yl)-1-propen-1-yl]-3-cephem-4-carboxylic acid]
MIC (S. aureus 4-1015 (MRSA)): > 100 µg/mL | MIC (K. pneumoniae PCI 602): 0.05 µg/mL (≈ 0.0777 µM) | MIC (S. epidermidis 11-1230): 50 µg/mL (≈ 77.7 µM) | MIC (P. cepacia A21213): 6.3 µg/mL (≈ 9.79 µM) | MIC (S. marcescens IPM-16): 25 µg/mL (≈ 38.8 µM) | MIC (S. aureus IPM-24 (MRSA)): 100 µg/mL (≈ 155 µM) | MIC (E. faecium A24817): > 100 µg/mL | MIC (X. maltophilia GN 12873): 3.1 µg/mL (≈ 4.82 µM) | MIC (X. maltophilia No. 661): 1.6 µg/mL (≈ 2.49 µM) | MIC (P. aeruginosa IPM-8): 0.4 µg/mL (≈ 0.621 µM) | MIC (M. luteus 1001): 6.3 µg/mL (≈ 9.79 µM) | MIC (M. morgani 1510/9): 0.8 µg/mL (≈ 1.24 µM) | MIC (C. freundii GN 7391): 25 µg/mL (≈ 38.8 µM) | MIC (E. coli 255): 0.2 µg/mL (≈ 0.311 µM) | MIC (E. cloacae IPM-12): 12.5 µg/mL (≈ 19.4 µM) | MIC (B. subtilis PCI 219): 12.5 µg/mL (≈ 19.4 µM) | MIC (P. cepacia No. 651): 6.3 µg/mL (≈ 9.79 µM) | MIC (P. aeruginosa IPM-9): 25 µg/mL (≈ 38.8 µM) | MIC (P. mirabilis IFO-2849): 0.2 µg/mL (≈ 0.311 µM) | MIC (M. morgani 1510): 3.1 µg/mL (≈ 4.82 µM) | MIC (P. rettgeri IPM-14): 1.6 µg/mL (≈ 2.49 µM) | MIC (S. marcescens IPM-15): > 100 µg/mL | MIC (C. terrigena IFO 12685): 3.1 µg/mL (≈ 4.82 µM) | MIC (E. faecalis A9808): > 100 µg/mL | MIC (P. vulgaris IPM-13): 50 µg/mL (≈ 77.7 µM) | MIC (P. aeruginosa KKA 19): 0.8 µg/mL (≈ 1.24 µM) | MIC (S. aureus 209P): 12.5 µg/mL (≈ 19.4 µM) | MIC (P. aeruginosa A20599): 0.8 µg/mL (≈ 1.24 µM) | MIC (P. aeruginosa A9843A): 0.4 µg/mL (≈ 0.621 µM) | MIC (E. coli Juhl A15119): 1.6 µg/mL (≈ 2.49 µM) | MIC (S. aureus Smith): 25 µg/mL (≈ 38.8 µM)

C[N+]1(C/C=C/C2=C(C(=O)[O-])N3C(=O)C(NC(=O)/C(=N\OCC(=O)O)c4csc(N)n4)C3SC2)Cc2cc(O)c(O)cc2C1 (stereo not shown) [Ih, 7-[(Z)-2-(2-Aminothiazol-4-yl)-2-carboxymethoxyimino-acetamido]-3-[3-(E)-(5,6-hydroxy-2-methyl-2-isoindolinio)-1-propen-1-yl]-3-cephem-4-carboxylate]
MIC [1]: 12.5 µg/mL (≈ 19.8 µM) | MIC [2]: 0.2 µg/mL (≈ 0.317 µM) | MIC [3]: 0.4 µg/mL (≈ 0.634 µM) | MIC [4]: 1.1 µg/mL (≈ 1.74 µM) | MIC [5]: 0.49 µg/mL (≈ 0.777 µM) | MIC [6]: 7.2 µg/mL (≈ 11.4 µM)
